# Measurements taken from patent publication US20080187508A1, “Treatment of Golmerular Basement Membrane Disease Involving Matrix Metalloproteinase-12” (BOYS TOWN NATIONAL RESEARCH HOSPITAL, priority 2004, published 2008).
# “Also recorded” adds a separate entry of the source. Structures can show the parent of a compound that is named as a salt. Where two headings read alike, the source gives them in different places.
# How the values were obtained:
# MMP-12 = MMP-12 (Homo sapiens, UniProt P39900); details: cited from earlier work
# Chain of MMP-12 (P39900 106-470, species assumed): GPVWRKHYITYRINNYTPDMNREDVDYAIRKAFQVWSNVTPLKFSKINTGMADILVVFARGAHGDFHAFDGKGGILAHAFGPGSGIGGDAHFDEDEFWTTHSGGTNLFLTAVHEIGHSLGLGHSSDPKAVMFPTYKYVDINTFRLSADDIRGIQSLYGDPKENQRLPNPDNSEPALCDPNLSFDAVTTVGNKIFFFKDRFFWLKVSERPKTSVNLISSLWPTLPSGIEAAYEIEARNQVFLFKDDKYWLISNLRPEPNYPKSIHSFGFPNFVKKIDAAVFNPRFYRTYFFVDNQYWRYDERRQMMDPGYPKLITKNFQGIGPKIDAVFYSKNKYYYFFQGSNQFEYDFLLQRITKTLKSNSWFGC
# Alport mice = assay: immunofluorescence of kidney cryosections (fibronectin, collagen IV α1/α2) of treated Alport mice; type: in vivo, mouse; details: Alport mice treated from 4 to 7 weeks of age, MMI-270 50 μg/g I.P., BAY 129566 4 mg once daily oral gavage, fibronectin and collagen IV α1/α2 immunostaining
# Procedure: The Alport mouse model has been described (Cosgrove et al. (1996) Genes Dev. 10, 2981-2992). The control mice used were normal for both collagen α3(IV) alleles, and are a product of double heterozygote crosses for the Alport mutation. The use of animals in this study was performed in accordance with an approved institutional IACUC protocol. Extreme care was taken to minimize pain and discomfort suffered by the mice. MMP inhibitors were administered between 4 and 7 weeks of age. All drugs were freshly prepared prior to administration. BAY 129566 was emulsified in suspension with 0.5% carboxymethyl cellulose and 4 mg given once a day by oral gavage. MMI-270 was solubilized in 0.9% saline and administered by I.P. injection (50 μg/g body weight) once a day.
# Cryosections ([…]) of kidneys from 7-week-old normal and Alport mice were air dried, fixed by immersion in ice cold acetone, and subjected to immunohistochemical staining analysis using antibodies specific for MMP-3 (rabbit polyclonal anti-human MMP-3, a gift from Dr. Z. Gunza-Smith, Miami, Fla., used at 1:200 dilution), MMP-12 (rabbit polyclonal antibody against mouse MMP-12, kindly provided by Yoshikatsu Kaneko, used at 1:100 dilution), type IV collagen α1/2 chains (rabbit polyclonal against mouse type IV collagen, Biodesign, Inc., Saco, Me., used at 1:200 dilution), fibronectin (rabbit polyclonal against human plasma fibronectin, Sigma Chemical Co., St. Louis, Mo., used at 1:200). Anti-CD31 antibodies were directly conjugated to Alexa 568 (Molecular Probes, Eugene Oreg.) and purchased from Immunotech (Marseille, France). […] Images were collected using a Cytovision Ultra Image analysis system interfaced with an Olympus BH-2 fluorescence microscope.
# To assess the effect of these two compounds on Alport renal disease progression, Alport mice were administered either MMI 270 or BAY 129566 from 4 to 7 weeks of age. […] Cryosections were analyzed by immunofluorescence microscopy to assess for the degree of glomerular and tubulointerstitial damage using antibodies specific for collagen IV α1 and α2 chains, and fibronectin.
# [1] = listed as NMI 270, hydrochloride monohydrate
compound,measurement,setting,value
"COc1ccc(S(=O)(=O)N(Cc2cccnc2)[C@@H](C(=O)NO)C(C)C)cc1 [MMI 270, N-hydroxy-2(R)-[(4-methoxysulfonyl)(3-picolyl)amino]-3-methylbutaneamide hydrochloride monohydrate]","MMP inhibitory effect, MMP-12",MMP-12; hydrochloride monohydrate,inhibits
same,"MMP inhibitory effect, MMP-12",MMP-12; [1],inhibits
same,glomerular and tubulointerstitial (renal) disease progression,Alport mice; hydrochloride monohydrate,very little glomerular or interstitial disease; also recorded: remarkable improvement
same,glomerular and tubulointerstitial (renal) disease progression,Alport mice; [1],significantly reduced interstitial disease
